Laboratory results published in patent publication US7015345B2, “Propionic acid derivatives” (Asahi Kasei Pharma Corporation, priority 2002, dated 2006).
Where two headings read alike, the source gives them in different places.

Tests used:
[1] = tested on: 3T3-L1 precursor adipocytes; experiment: Triglyceride accumulation in adipocytes; format: cell-based; conditions: Mus musculus, 100 nM compound, 4 to 5 days culture, relative to 10 μM rosiglitazone taken as 100%, read-out: Amount of accumulated triglyceride (%)
Protocol: (§1) Test for Uptake of Glucose By Adipocytes and Test for Triglyceride Accumulation in Adipocytes
Further, 3T3-L1 precursor adipocytes were cultured for 4 to 5 days in the presence of a test compound, and then the amount of triglyceride in the cells was measured according to the method of Shibata T et al. (Eur. J. Pharmacol., 364 (2–3), 211–219, 1999). The amount of accumulated triglyceride provided after the treatment with 100 nM of each compound was measured, and represented as a relative value based on the amount of accumulated triglyceride provided after the treatment with 10 μM rosiglitazone, which was taken as 100%.

db/db mice = experiment: Hypoglycemic action and triglyceride-decreasing action in db/db mice; format: in vivo; conditions: Mus musculus, 360 h; for inhibition in vivo at 3 mg/kg: 3 mg/kg oral once a day for 2 weeks; for inhibition in vivo at 1 mg/kg: 1 mg/kg oral once a day for 2 weeks
Protocol: Test for Measuring Hypoglycemic Action and Triglyceride-Decreasing Action in db/db Mice
Each of test compounds was administered once a day for 2 weeks to db/db mice genetically presenting pathological conditions of obesity, hyperglycemia, and hyperlipidemia. Blood was collected from the mice immediately before the start of administration of a test sample or a vehicle on the first day. Plasma glucose levels and triglyceride levels were measured, and the mice were divided into groups so that average glucose levels and triglyceride levels gave no significant value among the groups. All the test samples were suspended in a 0.5% methylcellulose (MC) solution and orally administered. For a vehicle-administered control group, a 0.5% MC solution was orally administered. Blood samples were collected from the mice on the 15th day, and plasma glucose levels and triglyceride levels were measured. A hypoglycemic rate and triglyceride-reducing rate were calculated by using the following equations.

Zucker rats = experiment: Liver triglyceride contents in Zucker rats; format: in vivo; conditions: Rattus norvegicus, 336 h, 1 mg/kg once a day for 2 weeks, read-out: Triglyceride reducing rate (%)
Protocol: Measurement of Liver Triglyceride Contents in Zucker Rats
To Zucker rats, a vehicle (0.5% MC), a compound of the present invention or fenofibrate (Sigma) was administered once a day for 2 weeks. The livers were isolated on the next day of the final administration, and amounts of triglyceride in the livers were determined. Triglyceride was extracted by adding 5 ml of a mixture of hexane and isopropanol (2:1, V/V) to 100 mg of liver, homogenizing the liver using Polytron homogenizer, then sufficiently stirring and centrifuging the homogenate at 2000 g for 10 minutes at room temperature. The amount of triglyceride in the solution layer was measured.

[2] = tested on: hamsters fed with high cholesterol diet; experiment: Total plasma cholesterol and non-HDL cholesterol reducing action in hamster fed high cholesterol diet; format: in vivo; conditions: Mesocricetus auratus, 192 h, hamsters on high cholesterol diet, 10 mg/kg oral once a day for one week, plasma on 8th day
Protocol: Test for Measuring Total Plasma Cholesterol Reducing Action and Non-HDL Cholesterol (VLDL Cholesterol+LDL Cholesterol) Reducing Action in Hamster
A test compound (10 mg/kg) was administered once a day for one week to hamsters fed with high cholesterol diet (CE-2 (Clea Japan)+1% cholesterol+10% coconut oil) for five days. The plasma cholesterol level and the plasma HDL cholesterol level were measured immediately before the start of the administration of the test sample or vehicle on the 1st day, and the hamsters were divided into groups so that the groups gave no significant value of initial levels of the both measurements. Each of the test samples was dissolved in a 0.5% methylcellulose (MC) solution and orally administered. A 0.5% methylcellulose (MC) solution was orally administered to the hamsters as a vehicle control group. A blood sample was collected on the 8th day, and the plasma cholesterol level and the plasma HDL cholesterol level were measured. The total cholesterol reducing rate was obtained by using the following equation. [formula]
Further, non-HDL cholesterol level (LDL cholesterol level+VLDL cholesterol level) was calculated as (Total cholesterol level−HDL cholesterol level), and the reducing rate thereof was calculated by using the following equation. [formula]

[3] = tested on: 3T3-L1 precursor adipocytes; experiment: Uptake of glucose by adipocytes ([3H]-2-deoxy-glucose uptake); format: cell-based; conditions: Mus musculus, 100 nM compound, 4 to 5 days culture, 100 nM insulin stimulation, relative to 10 μM rosiglitazone taken as 100%, read-out: Amount of glucose uptake (%)
Protocol: as §1
According to the method of Mukherjee et al. (Mol. Endocrinol, 14, 1425–1433, 2000), a glucose uptake experiment was performed by using cultured cells. 3T3-L1 precursor adipocytes were cultured for 4 to 5 days in the presence of a test compound, and then stimulated with 100 nM insulin, and then the amount of [^3H]-2-deoxy-glucose (2DG) uptake by the cells was measured. The amount of glucose uptake provided after the treatment with 100 nM of each compound was measured, and represented as a relative value based on the amount of glucose uptake provided after the treatment with 10 μM rosiglitazone, which was taken as 100%.

[4] = plasma glucose on 15th day vs vehicle, read-out: Hypoglycemic rate (%)
[5] = plasma triglyceride on 15th day vs vehicle, read-out: Triglyceride reducing rate (%)
[6] = non-HDL = total cholesterol - HDL cholesterol, read-out: Non-HDL cholesterol reducing rate (%)
[7] = read-out: Total cholesterol reducing rate (%)

CCCCCCCN(CCOc1ccc(CC(OCC)C(=O)O)cc1)C(=O)OCC (centres unmarked) [Example 75, 2-ethoxy-3-{4-[2-(N-ethoxycarbonyl-N-heptylamino)ethoxy]phenyl}propionic acid]
Emax at 0.1 µM [1]: 98%
inhibition in vivo at 3 mg/kg (db/db mice; [4]): 38%
inhibition in vivo at 3 mg/kg (db/db mice; [5]): 32%
inhibition in vivo at 1 mg/kg (Zucker rats): 32%
inhibition in vivo at 10 mg/kg [2, 6]: 46%
inhibition in vivo at 10 mg/kg [2, 7]: 48%
Emax at 0.1 µM [3]: 98%

CCOC(Cc1ccc(OCCN(CCOc2ccccc2)C(=O)OC(C)C)cc1)C(=O)O (centres unmarked) [Example 92, 2-ethoxy-3-(4-{2-[N-isopropoxycarbonyl-N-(2-phenoxyethyl)amino]ethoxy}phenyl)propionic acid]
Emax at 0.1 µM [1]: 92%
inhibition in vivo at 3 mg/kg (db/db mice; [4]): 4%
inhibition in vivo at 3 mg/kg (db/db mice; [5]): 12%
inhibition in vivo at 1 mg/kg (Zucker rats): 2%
inhibition in vivo at 10 mg/kg [2, 6]: 10%
inhibition in vivo at 10 mg/kg [2, 7]: 8%
Emax at 0.1 µM [3]: 90%

CCCCCCCN(CCOc1ccc(CC(OCC)C(=O)OCC)cc1)C(=O)OCC(F)(F)F (centres unmarked) [Example 96, 2-ethoxy-3-(4-{2-[N-heptyl-N-(2,2,2-trifluoroethoxycarbonyl)amino]ethoxy}phenyl)propionic acid ethyl ester]
Emax at 0.1 µM [1]: 80%
inhibition in vivo at 3 mg/kg (db/db mice; [4]): 38%
inhibition in vivo at 3 mg/kg (db/db mice; [5]): 31%
inhibition in vivo at 1 mg/kg (Zucker rats): 39%
inhibition in vivo at 10 mg/kg [2, 6]: 23%
inhibition in vivo at 10 mg/kg [2, 7]: 24%
Emax at 0.1 µM [3]: 85%

CCCCOCCN(CCOc1ccc(CC(OCC)C(=O)O)cc1)C(=O)OCCC (centres unmarked) [Example 115, 3-(4-{2-[N-(2-butoxyethyl)-N-propoxycarbonylamino]ethoxy}phenyl)-2-ethoxypropionic acid]
Emax at 0.1 µM [1]: 95%
inhibition in vivo at 3 mg/kg (db/db mice; [4]): 11%
inhibition in vivo at 3 mg/kg (db/db mice; [5]): 18%
inhibition in vivo at 1 mg/kg (Zucker rats): 42%
inhibition in vivo at 10 mg/kg [2, 6]: 17%
inhibition in vivo at 10 mg/kg [2, 7]: 17%
Emax at 0.1 µM [3]: 98%

CCCCCCCN(CCOc1ccc(CC(OC(C)C)C(=O)O)cc1)C(=O)OC (centres unmarked) [Example 118, 3-{4-[2-(N-heptyl-N-methoxycarbonylamino)ethoxy]phenyl}-2-isopropoxypropionic acid]
Emax at 0.1 µM [1]: 55%
inhibition in vivo at 1 mg/kg (db/db mice; [4]): 42%
inhibition in vivo at 1 mg/kg (db/db mice; [5]): 51%
inhibition in vivo at 1 mg/kg (Zucker rats): 47%
inhibition in vivo at 10 mg/kg [2, 6]: 50%
inhibition in vivo at 10 mg/kg [2, 7]: 45%
Emax at 0.1 µM [3]: 60%

CCCCCCCN(CCOc1ccc(CC(OCCC)C(=O)O)cc1)C(=O)OC (centres unmarked) [Example 120, 3-{4-[2-(N-heptyl-N-methoxycarbonylamino)ethoxy]phenyl}-2-propoxypropionic acid]
Emax at 0.1 µM [1]: 88%
inhibition in vivo at 1 mg/kg (db/db mice; [4]): 39%
inhibition in vivo at 1 mg/kg (db/db mice; [5]): 48%
inhibition in vivo at 1 mg/kg (Zucker rats): 28%
inhibition in vivo at 10 mg/kg [2, 6]: 25%
inhibition in vivo at 10 mg/kg [2, 7]: 28%
Emax at 0.1 µM [3]: 90%

CCCCOCCN(CCOc1ccc(CC(OCC)C(=O)O)cc1)C(=O)OC(C)C (centres unmarked) [Example 122, 3-(4-{2-[N-(2-butoxyethyl)-N-isopropoxycarbonylamino]ethoxy}phenyl)-2-ethoxypropionic acid]
Emax at 0.1 µM [1]: 90%
inhibition in vivo at 3 mg/kg (db/db mice; [4]): 14%
inhibition in vivo at 3 mg/kg (db/db mice; [5]): 21%
inhibition in vivo at 1 mg/kg (Zucker rats): 2%
inhibition in vivo at 10 mg/kg [2, 6]: 9%
inhibition in vivo at 10 mg/kg [2, 7]: 10%
Emax at 0.1 µM [3]: 92%

CCCCOCCN(CCOc1ccc(CC(OCC)C(=O)O)cc1)C(=O)OCC(C)C (centres unmarked) [Example 123, 3-(4-{2-[N-(2-butoxyethyl)-N-isobutoxycarbonylamino]ethoxy}phenyl)-2-ethoxypropionic acid]
Emax at 0.1 µM [1]: 96%
inhibition in vivo at 3 mg/kg (db/db mice; [4]): 8%
inhibition in vivo at 3 mg/kg (db/db mice; [5]): 32%
inhibition in vivo at 1 mg/kg (Zucker rats): 35%
inhibition in vivo at 10 mg/kg [2, 6]: 25%
inhibition in vivo at 10 mg/kg [2, 7]: 25%
Emax at 0.1 µM [3]: 99%

CCCCCCCN(CCOc1ccc(CC(OC(C)C)C(=O)O)cc1)C(=O)OC(C)C (centres unmarked) [Example 125, 3-{4-[2-(N-heptyl-N-isopropoxycarbonylamino)ethoxy]phenyl}-2-isopropoxypropionic acid]
Emax at 0.1 µM [1]: 98%
inhibition in vivo at 1 mg/kg (db/db mice; [4]): 42%
inhibition in vivo at 1 mg/kg (db/db mice; [5]): 64%
inhibition in vivo at 1 mg/kg (Zucker rats): 36%
inhibition in vivo at 10 mg/kg [2, 6]: 48%
inhibition in vivo at 10 mg/kg [2, 7]: 45%
Emax at 0.1 µM [3]: 97%

CCCCOCCN(CCOc1ccc(CC(OC(C)C)C(=O)O)cc1)C(=O)OC(C)C (centres unmarked) [Example 130, 3-(4-{2-[N-(2-butoxyethyl)-N-isopropoxycarbonylamino]ethoxy}phenyl)-2-isopropoxypropionic acid]
Emax at 0.1 µM [1]: 90%
inhibition in vivo at 1 mg/kg (db/db mice; [4]): 41%
inhibition in vivo at 1 mg/kg (db/db mice; [5]): 40%
inhibition in vivo at 1 mg/kg (Zucker rats): 32%
inhibition in vivo at 10 mg/kg [2, 6]: 22%
inhibition in vivo at 10 mg/kg [2, 7]: 22%
Emax at 0.1 µM [3]: 92%

CCCCOCCN(CCOc1ccc(CC(OC(C)C)C(=O)O)cc1)C(=O)OCC(C)C (centres unmarked) [Example 132, 3-(4-{2-[N-(2-butoxyethyl)-N-isobutoxycarbonylamino]ethoxy}phenyl)-2-isopropoxypropionic acid]
Emax at 0.1 µM [1]: 97%
inhibition in vivo at 1 mg/kg (db/db mice; [4]): 7%
inhibition in vivo at 1 mg/kg (db/db mice; [5]): 14%
inhibition in vivo at 1 mg/kg (Zucker rats): 39%
inhibition in vivo at 10 mg/kg [2, 6]: 20%
inhibition in vivo at 10 mg/kg [2, 7]: 18%
Emax at 0.1 µM [3]: 96%
